Measured values from patent EP2768830B1, “APOPTOSIS-INDUCING AGENTS FOR THE TREATMENT OF CANCER AND IMMUNE AND AUTOIMMUNE DISEASES” (AbbVie Inc., priority 2011, dated 2013).
Read-outs that look alike come from different tables or passages of the source.

Experiments:
[1] = tested on: mouse FL5.12 cells transfected with Bcl-XL; test: FL5.12 cellular assay (cell viability, CellTiter-Glo); type: cell-based; details: FL5.12 cells transfected with Bcl-XL, IL-3-depleted, 3% FBS assay media, 24 hours, CellTiter-Glo, read-out: FL5.12 Bcl-xL, - IL3, EC 50;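 also: each EC50 determination derived from duplicate measurements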
GST-Bcl-xL = GST-Bcl-xL (Homo sapiens, UniProt Q07817); details: read-out: TR-FRET binding Bcl-xL Ki
Sequence of GST-Bcl-xL (Q07817 whole entry): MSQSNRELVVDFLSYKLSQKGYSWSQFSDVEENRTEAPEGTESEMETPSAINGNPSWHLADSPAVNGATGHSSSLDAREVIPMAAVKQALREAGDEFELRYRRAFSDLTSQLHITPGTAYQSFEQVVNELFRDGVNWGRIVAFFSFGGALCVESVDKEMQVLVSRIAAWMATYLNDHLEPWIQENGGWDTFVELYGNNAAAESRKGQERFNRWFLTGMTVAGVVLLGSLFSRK

Structure (SMILES)	EC50 ([1]; Mus musculus) [nM]	Ki (GST-Bcl-xL) [nM]	EC50 [1] [nM]
CS(=O)(=O)c1cccc(Cn2cc(-c3ccc(N4CCc5cccc(C(=O)Nc6nc7ccccc7s6)c5C4)nc3C(=O)O)cn2)c1 [Example 69, 6-[8-(1,3-benzothiazol-2-ylcarbamoyl)-3,4-dihydroisoquinolin-2(1H)-yl]-3-{1-[3-(methylsulfonyl)benzyl]-1H-pyrazol-4-yl}pyridine-2-carboxylic acid]	> 1000	91	
Cc1nn(Cc2ccccc2)c(C)c1-c1ccc(N2CCc3cccc(C(=O)Nc4nc5ccccc5s4)c3C2)nc1C(=O)O [Example 12, 6-[8-(1,3-benzothiazol-2-ylcarbamoyl)-3,4-dihydroisoquinolin-2(1H)-yl]-3-(1-benzyl-3,5-dimethyl-1H-pyrazol-4-yl)pyridine-2-carboxylic acid]	51	8	
Cc1ccc(-c2ccc(N3CCc4cccc(C(=O)Nc5nc6ccccc6s5)c4C3)nc2C(=O)O)cc1Oc1ccccc1 [Example 108, 6-[8-(1,3-benzothiazol-2-ylcarbamoyl)-3,4-dihydroisoquinolin-2(1H)-yl]-3-(4-methyl-3-phenoxyphenyl)pyridine-2-carboxylic acid]	> 1000	9	
Cc1c(NC2CCCCC2)cccc1-c1ccc(N2CCc3cccc(C(=O)Nc4nc5ccccc5s4)c3C2)nc1C(=O)O [Example 118, 6-[8-(1,3-benzothiazol-2-ylcarbamoyl)-3,4-dihydroisoquinolin-2(1H)-yl]-3-[3-(cyclohexylamino)-2-methylphenyl]pyridine-2-carboxylic acid]	361	0.2	
O=C(Nc1nc2ccccc2s1)c1cccc2c1CN(c1ccc(-c3cnn(CC4(C(F)(F)F)CCCCC4)c3)c(C(=O)O)n1)CC2 [Example 74, 6-[8-(1,3-benzothiazol-2-ylcarbamoyl)-3,4-dihydroisoquinolin-2(1H)-yl]-3-(1-{[1-(trifluoromethyl)cyclohexyl]methyl}-1H-pyrazol-4-yl)pyridine-2-carboxylic acid]	335	6	
O=C(Nc1nc2ccccc2s1)c1cccc2c1CN(c1ccc(-c3cnn(Cc4ccc(F)c([N+](=O)[O-])c4)c3)c(C(=O)O)n1)CC2 [Example 45, 6-[8-(1,3-benzothiazol-2-ylcarbamoyl)-3,4-dihydroisoquinolin-2(1H)-yl]-3-[1-(4-fluoro-3-nitrobenzyl)-1H-pyrazol-4-yl]pyridine-2-carboxylic acid]	> 1000	19	
Cc1c(-c2ccc(N3CCc4cccc(C(=O)Nc5nc6ccccc6s5)c4C3C)nc2C(=O)O)cnn1CC1(C)CCCCC1 (stereo not shown) [Example 163, 6-[8-(1,3-benzothiazol-2-ylcarbamoyl)-1-methyl-3,4-dihydroisoquinolin-2(1H)-yl]-3-{5-methyl-1-[(1-methylcyclohexyl)methyl]-1H-pyrazol-4-yl}pyridine-2-carboxylic acid]	211	0.4	
Cc1c(-c2ccc(N3CCc4cccc(C(=O)Nc5nc6ccccc6s5)c4C3)nc2C(=O)O)cnn1Cc1ccccc1OCC1COCCO1 (stereo not shown) [Example 100, 6-[8-(1,3-benzothiazol-2-ylcarbamoyl)-3,4-dihydroisoquinolin-2(1H)-yl]-3-{1-[2-(1,4-dioxan-2-ylmethoxy)benzyl]-5-methyl-1H-pyrazol-4-yl}pyridine-2-carboxylic acid]	66	3	
O=C(Nc1nc2ccccc2s1)c1cccc2c1CN(c1ccc(-c3cnn(Cc4ccccc4S(=O)(=O)N4CCOCC4)c3)c(C(=O)O)n1)CC2 [Example 72, 6-[8-(1,3-benzothiazol-2-ylcarbamoyl)-3,4-dihydroisoquinolin-2(1H)-yl]-3-{1-[2-(morpholin-4-ylsulfonyl)benzyl]-1H-pyrazol-4-yl}pyridine-2-carboxylic acid]	> 1000	28	
O=C(Nc1nc2ccccc2s1)c1cccc2c1CN(c1ccc(-c3cnn(Cc4ccccc4OCc4ccccc4)c3)c(C(=O)O)n1)CC2 [Example 31, 6-[8-(1,3-benzothiazol-2-ylcarbamoyl)-3,4-dihydroisoquinolin-2(1H)-yl]-3-{1-[2-(benzyloxy)benzyl]-1H-pyrazol-4-yl}pyridine-2-carboxylic acid]	> 1000	18	
CCOC(=O)c1cc(-c2ccc(N3CCc4cccc(C(=O)Nc5nc6ccccc6s5)c4C3)nc2C(=O)O)c(C)n1Cc1ccccc1 [Example 123, 6-[8-(1,3-benzothiazol-2-ylcarbamoyl)-3,4-dihydroisoquinolin-2(1H)-yl]-3-[1-benzyl-5-(ethoxycarbonyl)-2-methyl-1H-pyrrol-3-yl]pyridine-2-carboxylic acid]	16	< 0.1	
Cc1c(-c2ccc(N3CCc4cccc(C(=O)Nc5nc6ccccc6s5)c4C3)nc2C(=O)O)cnn1C(CCN1CCOCC1)C1CCCCC1 (stereo not shown) [Example 152, 6-[8-(1,3-benzothiazol-2-ylcarbamoyl)-3,4-dihydroisoquinolin-2(1H)-yl]-3-{1-[1-cyclohexyl-3-(morpholin-4-yl)propyl]-5-methyl-1H-pyrazol-4-yl}pyridine-2-carboxylic acid]	1	< 0.1	
COCC1(Cn2ncc(-c3ccc(N4CCc5cccc(C(=O)Nc6nc7ccccc7s6)c5C4)nc3C(=O)O)c2C)CCCCC1 [Example 144, 6-[8-(1,3-benzothiazol-2-ylcarbamoyl)-3,4-dihydroisoquinolin-2(1H)-yl]-3-(1-{[1-(methoxymethyl)cyclohexyl]methyl}-5-methyl-1H-pyrazol-4-yl)pyridine-2-carboxylic acid]	213	< 0.1	
Cc1c(-c2ccc(N3CCc4cccc(C(=O)Nc5nc6ccccc6s5)c4C3)nc2C(=O)O)ccnc1OC1CCCCC1 [Example 138, 6-[8-(1,3-benzothiazol-2-ylcarbamoyl)-3,4-dihydroisoquinolin-2(1H)-yl]-2'-(cyclohexyloxy)-3'-methyl-3,4'-bipyridine-2-carboxylic acid]	> 1000	< 0.1	
COCCOC1(Cn2ncc(-c3ccc(N4CCc5cccc(C(=O)Nc6nc7ccccc7s6)c5C4)nc3C(=O)O)c2C)CCCCCC1 [Example 151, 6-[8-(1,3-benzothiazol-2-ylcarbamoyl)-3,4-dihydroisoquinolin-2(1H)-yl]-3-(1-{[1-(2-methoxyethoxy)cycloheptyl]methyl}-5-methyl-1H-pyrazol-4-yl)pyridine-2-carboxylic acid]	0.6	< 0.1	
CC(c1ccccc1)n1cc(-c2ccc(N3CCc4cccc(C(=O)Nc5nc6ccccc6s5)c4C3)nc2C(=O)O)cn1 (stereo not shown) [Example 5, 6-[8-(1,3-benzothiazol-2-ylcarbamoyl)-3,4-dihydroisoquinolin-2(1H)-yl]-3-[1-(1-phenylethyl)-1H-pyrazol-4-yl]pyridine-2-carboxylic acid]	408	19	
CC1(C)CCC(Cn2cc(-c3ccc(N4CCc5cccc(C(=O)Nc6nc7ccccc7s6)c5C4)nc3C(=O)O)cn2)=C(c2ccc(Cl)cc2)C1 [Example 83, 6-[8-(1,3-benzothiazol-2-ylcarbamoyl)-3,4-dihydroisoquinolin-2(1H)-yl]-3-(1-{[2-(4-chlorophenyl)-4,4-dimethylcyclohex-1-en-1-yl]methyl}-1H-pyrazol-4-yl)pyridine-2-carboxylic acid]	> 1000	0.5	
COc1cccc(Cn2cc(-c3ccc(N4CCc5cccc(C(=O)Nc6nc7ccccc7s6)c5C4)nc3C(=O)O)cn2)c1 [Example 14, 6-[8-(1,3-benzothiazol-2-ylcarbamoyl)-3,4-dihydroisoquinolin-2(1H)-yl]-3-[1-(3-methoxybenzyl)-1H-pyrazol-4-yl]pyridine-2-carboxylic acid]		12	> 1000
O=C(Nc1nc2ccccc2s1)c1cccc2c1CN(c1ccc(-c3cnn(C(CCN4CCOCC4)c4ccccc4)c3)c(C(=O)O)n1)CC2 (stereo not shown) [Example 77, 6-[8-(1,3-benzothiazol-2-ylcarbamoyl)-3,4-dihydroisoquinolin-2(1H)-yl]-3-{1-[3-(morpholin-4-yl)-1-phenylpropyl]-1H-pyrazol-4-yl}pyridine-2-carboxylic acid]	431	10	
O=C(Nc1nc2ccccc2s1)c1cccc2c1CN(c1ccc(-c3cnn(CC4CCCOC4)c3)c(C(=O)O)n1)CC2 (stereo not shown) [Example 56, 6-[8-(1,3-benzothiazol-2-ylcarbamoyl)-3,4-dihydroisoquinolin-2(1H)-yl]-3-[1-(tetrahydro-2H-pyran-3-ylmethyl)-1H-pyrazol-4-yl]pyridine-2-carboxylic acid]	583	24	
Cc1c(-c2ccc(N3CCc4cccc(C(=O)Nc5nc6ccccc6s5)c4C3)nc2C(=O)O)ccnc1N1CCCCC1 [Example 183, 6-[8-(1,3-benzothiazol-2-ylcarbamoyl)-3,4-dihydroisoquinolin-2(1H)-yl]-3'-methyl-2'-(piperidin-1-yl)-3,4'-bipyridine-2-carboxylic acid]	507	0.7	
O=C(Nc1nc2ccccc2s1)c1cccc2c1CN(c1ccc(-c3cccc(OC4CCCCC4)c3F)c(C(=O)O)n1)CC2 [Example 119, 6-[8-(1,3-benzothiazol-2-ylcarbamoyl)-3,4-dihydroisoquinolin-2(1H)-yl]-3-[3-(cyclohexyloxy)-2-fluorophenyl]pyridine-2-carboxylic acid]		< 0.1	762
CC(C)(C)OC(=O)N1CCC(Cn2cc(-c3ccc(N4CCc5cccc(C(=O)Nc6nc7ccccc7s6)c5C4)nc3C(=O)O)cn2)CC1 [Example 78, 6-[8-(1,3-benzothiazol-2-ylcarbamoyl)-3,4-dihydroisoquinolin-2(1H)-yl]-3-(1-{[1-(tert-butoxycarbonyl)piperidin-4-yl]methyl}-1H-pyrazol-4-yl)pyridine-2-carboxylic acid]	> 1000	379	
